Tests used:
[1] = 1H NMR analysis of MeSA hydrolysis in aqueous alkaline solution; type: physicochemical; conditions: for effect of added amino acid or derivative on MeSA hydrolysis rate: pH 9.0, aqueous solution (FIG. 4, 7, 8); for ester hydrolysis: with or without Gly at pH 9.0, within 48 hours (FIG. 4)
Description: Direct detection and quantification of MeSA in aqueous solution is challenging due to its low water solubility. While ^1H NMR provides structural and quantitative information of the specific substrate in the aqueous mixture, the greatest limitation of NMR is its poor sensitivity. […] Typically, a high concentration of substrate is needed for NMR quantitative analysis. However, to quantify a substrate by NMR at concentrations at or below about 0.1 wt. % in water is not possible without effective solvent suppression. To overcome this hurdle, composite n/2 pulses were applied prior to pre-saturation pulses to effectively suppress the water peak of the sample.
Studies were conducted to test how pH affects MeSA hydrolysis.
Next, the phenolic hydroxyl group was examined to test whether it affects hydrolysis of MeSA at basic pH. The hydrolysis of two analogue compounds, namely, methyl benzoate and methyl paraben were studied as comparators.
The t-butyloxycarbonyl (BOC) and methyl ester groups are routinely used in peptide synthesis to protect amine and carboxyl group of amino acid from reaction.

[2] = Methyl salicylate concentration versus pH in presence of arginine, UV/Vis (FIG. 9); type: physicochemical
Description: As shown, degradation of methyl salicylate can be substantially mitigated even in the presence of an amino acid under accelerated aging conditions. A curve for the relationship between pH and the above compositions is illustrated in FIG. 9.

Compound | effect of added amino acid or derivative on MeSA hydrolysis rate [1] | ester hydrolysis [1] | other results
COC(=O)CN [Gly methyl ester, reference compound] | slightly faster than that of MeSA only |  | 
COC(=O)CNC(=O)OC(C)(C)C [Boc-Gly methyl ester, reference compound] | significantly reduces to the same level as that of MeSA without Gly |  | 
COC(=O)c1ccc(O)cc1 [methyl paraben, reference compound] |  | no ester hydrolysis | 
COC(=O)c1ccccc1 [methyl benzoate, reference compound] |  | no ester hydrolysis | 
COC(=O)c1ccccc1O [MeSA, Methyl salicylate] |  | significant hydrolysis | reduction of peak intensity of the methyoxy group of MeSA ([1]; after 12 hr hydrolysis, 0.05 wt % MeSA + 0.025 wt % glycine, pH 9.0, 25° C.): about 30%; degradation of MeSA concentration (hydrolysis rate) as solution is more basic ([1]; water without amino acid, pH range 8 to 11.5 (FIG. 3)): becomes faster; MeSA hydrolysis ([1]; with Gly at pH 7.0): drastically reduced; MeSA degradation ([2]; pH 7.5): dramatically increases; preservation of MeSA ([2]; pH at 6.5 or 7.0): good preservation
CC(C)(C)OC(=O)NCC(=O)O [Boc-Gly-OH, reference compound] | much faster than that of MeSA alone |  | 
NCCCC[C@H](N)C(=O)O [lysine] | accelerate the degradation of MeSA |  | 
